# Data from patent publication US12629419B2, “Prevention or mitigation of T-cell engaging agent-related adverse effects” (Hoffmann-La Roche Inc., priority 2020, dated 2026).
# Entries after “also recorded” stand apart in the source; their conditions may differ.
# Experiments:
# [1] = test system: cytokine release induced by CAR-T cells; test: cytokine release induced by PGLALA and CD16 CAR-T cells (Luminex); type: cell-based; details: 100 nM inhibitor
# Procedure: (§1) FIG. 62. Effect of 100 nM ruxolitinib and 100 nM sirolimus on GM-CSF (A), IFN-γ (B), IL-2 (C) and TNF-α (D) induced by PGLALA CAR-T cells. PGLALA CAR-T cells were co-cultured together with CTV labelled WSU tumor cells (E:T=10:1) and escalating concentrations of PGLALA-Fc anti-CD20 IgG in the presence and absence of 100 nM ruxolitinib (ruxo) or 100 nM sirolimus (siro) respectively. At 24 hours, the supernatants from technical replicates were pooled and cytokines were analyzed by Luminex. Mean of n=2 donors.
# as §1, with “63.” for “62.”, “CD16” for “PGLALA”, “wild-type Fc” for “PGLALA-Fc”, “(siro).” for “(siro) respectively.”
# To assess the impact of JAK inhibitor ruxolitinib and mTOR inhibitor sirolimus on cytokine release induced by CAR-T cells, we conducted a killing assay where PGLALA and CD16 universal CAR-T cells (CAR-T cells with a CAR comprising an anti-P329G-Fc scFv (binding to PGLALA Fc) or CD16 (binding to wild-type Fc)) were co-cultured with CTV WSU tumor cells in the presence of escalating concentrations of PGLALA Fc and wild-type Fc anti-CD20 IgG in medium supplemented with 100 nM ruxolitinib or 100 nM sirolimus. To verify whether ruxolitinib and sirolimus interfered with tumor cell killing by CAR-T cells, we measured killing of CTV WSU tumor cells by flow cytometry at 24 hours.
# NALM-6 tumors cells = test: CD19-TCB killing assay with NALM-6 cells, inhibitors added after 24 hrs of activation: killing; type: cell-based; details: 100 nM added at 24 hrs; measured at 48 hrs
# Procedure: (§2) FIG. 78. In vitro killing assay set-up. PBMCs were co-cultured with CTV labelled NALM-6 cells (E:T=10:1) in the presence of escalating concentrations of CD19-TCB for 24 hrs. At 24 hrs, the culture medium was supplemented with 100 nM dasatinib, 100 nM sirolimus or 100 nM ruxolitinib.
# (§3) To assess whether the mTOR inhibitor sirolimus, the JAK1/2 inhibitor ruxolitinib and the Src inhibitor dasatinib can prevent further release of cytokines induced by the treatment of CD19-TCB, they were added in an in vitro killing assay after 24 hrs of activation (FIG. 78). In this assay CTV labelled NALM-6 tumors cells were co-cultured with PBMCs in the presence of escalating doses of CD19-TCB for 24 hrs. At 24 hrs, 100 nM ruxolitinib, 100 nM sirolimus or 100 nM dasatinib were added in the system. To verify if T cells were activated before the addition of the different kinase inhibitors, tumor cell killing and cytokine release were measured at 24 hrs (FIGS. 79 and 80). Lastly, cytokine release and tumor cell killing were measured at 48 hrs to assess the effect of the addition of 100 nM ruxolitinib, 100 nM sirolimus or 100 nM dasatinib on CD19-TCB-induced cytokine release as compared to the effect on killing.
# [2] = test system: CD19-TCB-induced cytokine release; test: CD19-TCB NALM-6 assay, inhibitors added after 24 hrs: cytokine release; type: cell-based; details: 100 nM added at 24 hrs; between 24 hrs and 48 hrs
# Procedure: as §2, §3
# CD20+ B cells = test: CD19-TCB-induced B cell depletion in humanized NSG mice; type: in vivo; details: for CD19-TCB-induced B cell depletion in blood: co-treatment with 0.5 mg/kg CD19-TCB; for CD19-TCB-induced CD20+ B cell depletion in the spleen: 72 hrs (termination)
# Description: (§4) FIG. 81. In vivo experiment timelines and dosing schedule.
# (§5) To best reproduce the pharmacodynamic profile of ruxolitinib, dasatinib and sirolimus in the clinic and to verify whether the resulting exposure would be sufficient to prevent CD19-TCB-induced cytokine release, dasatinib and ruxolitinib were given per os twice per day, and sirolimus was given per os twice per day on day 1 and then once per day.
# At 48 hrs and 72 hrs, blood was collected by tail-vein bleeding and the CD20+ B cell count was measured by flow cytometry (FIGS. 82A and B) to assess the effect of the different treatments on CD19-TCB-induced B cell depletion. […] Its half-life being around 6-7 hrs and dasatinib being given only twice per day, a lack of exposure could likely explain that CD19-TCB was partially active, resulting in B cell depletion. At experiment termination (72 hrs), spleens were collected and the B cell count was measured by flow-cytometry (FIG. 83). […] However, their inhibitory effect was stronger than methylprednisolone (FIG. 83).
# [3] = test system: CD19-TCB-induced cytokine release; test: CD19-TCB-induced cytokine release in humanized NSG mice (serum, Luminex); type: in vivo; details: serum 6 hrs post treatment with CD19-TCB
# Description: as §4, §5
# [4] = test system: lymphoma patient derived xenograft (PDX); test: CD19-TCB anti-tumor activity in lymphoma PDX bearing humanized NSG mice; type: in vivo; details: sirolimus 5 mg/kg, p.o.; for anti-tumor activity in combination with CD19-TCB (0.5 mg/kg): ruxolitinib 30 mg/kg, dasatinib 20 mg/kg, dexamethasone, transient use
# Procedure: (§6) FIG. 89. In vivo experiment timelines and dosing schedule. Humanized NSG mice were engrafted with a lymphoma PDX (5 million cells, s.c.). […] The kinase inhibitors were given twice on the day of the first CD19-TCB administration (D16, once 1 hour before CD19-TCB, and once afterwards), and then once (sirolimus) or twice (dasatinib, ruxolitinib) on the two following days (D17 and D18), as well as once 1 hour before each subsequent CD19-TCB administration.
# (§7) First, we verified if the PDX cells were killed upon treatment with CD19-TCB in vitro, using a killing assay. The lymphoma PDX cells were co-cultured together with PBMCs (E:T=10:1) in the presence of CD19-TCB. […] Moreover, they were also administered one hour before each subsequent treatment to prevent residual cytokine secretion (FIG. 89).
# [5] = test system: CD19-TCB-mediated cytokine release; test: cytokine release upon first CD19-TCB infusion in lymphoma PDX bearing mice (serum); type: in vivo; details: for effects on cytokine levels: compared with obinutuzumab pre-treatment
# Procedure: as §6
# FIG. 94. […] Cytokine levels were measured by Luminex in serum collected 6 hrs post first infusion with CD19-TCB. Mean of n=6-8 mice+SD with *p≤0.05, **p<0.01, ***p<0.001 by 1 way ANOVA (Kruskal Wallis test).
# as §7
# [6] = 48 hrs, p.o.: 6×30 mg/kg ruxolitinib, 4×5 mg/kg sirolimus, dexamethasone, methylprednisolone
# [7] = 72 hrs, dasatinib 6×50 mg/kg p.o.
# [8] = serum 6 hrs post first infusion with CD19-TCB, ruxolitinib 30 mg/kg
smiles,measurement,setting,value
"CO[C@H]1C[C@@H]2CC[C@@H](C)[C@@](O)(O2)C(=O)C(=O)N2CCCC[C@H]2C(=O)O[C@H]([C@H](C)C[C@@H]2CC[C@@H](O)[C@H](OC)C2)CC(=O)[C@H](C)/C=C(\C)[C@@H](O)[C@@H](OC)C(=O)[C@H](C)C[C@H](C)/C=C/C=C/C=C/1C [sirolimus, Sirolimus]","release of IFN-γ, TNF-α and GM-CSF",[1]; CD16 CAR-T cells,strongly reduced
same,release of IL-2,[1]; CD16 CAR-T cells,strongly reduced
same,"release of IFN-γ, TNF-α and GM-CSF",[1]; PGLALA CAR-T cells,strongly reduced
same,release of IL-2,[1]; PGLALA CAR-T cells,strongly reduced
same,CTV labelled NALM-6 tumor cell killing,NALM-6 tumors cells,did not prevent
same,"further release of IFN-γ, TNF-α, IL-2 and IL-6",[2],prevented further release
same,CD19-TCB-induced B cell depletion in blood,CD20+ B cells; [6],slightly prevented
same,CD19-TCB-induced CD20+ B cell depletion in the spleen,CD20+ B cells,only partially prevented
same,CD19-TCB-induced B cell depletion in blood,CD20+ B cells; [7],comparable to the effect dexamethasone
same,CD19-TCB-induced IFN-γ and IL-6 release,[3],comparable to the pre-treatement with obinutuzumab
same,CD19-TCB-induced IL-2 and TNF-α,[3],comparable to the pre-treatement with Gazyva®
same,anti-tumor activity in combination with CD19-TCB (0.5 mg/kg),[4],comparable to CD19-TCB alone; also recorded: did not impair
same,"tumor growth, given as a single agent","[4]; dexamethasone 1, 0.5, 0.25 mg/kg","reduction in tumor growth, yet not significant"
same,effects on cytokine levels,[5],stronger than the effect of obinutuzumab pre-treatment
same,"IL-2, IFN-γ, TNF-α and IL-6 release upon the first infusion",[5]; serum 6 hrs post first infusion with CD19-TCB,suppressed
"N#CC[C@H](C1CCCC1)n1cc(-c2ncnc3[nH]ccc23)cn1 [ruxolitinib, Ruxolitinib]","release of IFN-γ, TNF-α and GM-CSF",[1]; CD16 CAR-T cells,reduced
same,"release of IFN-γ, TNF-α and GM-CSF",[1]; PGLALA CAR-T cells,reduced
same,CTV labelled NALM-6 tumor cell killing,NALM-6 tumors cells,did not prevent
same,"further release of IFN-γ, TNF-α and IL-6",[2],only prevented further release
same,CD19-TCB-induced B cell depletion in blood,CD20+ B cells; [6],slightly prevented
same,CD19-TCB-induced CD20+ B cell depletion in the spleen,CD20+ B cells,only partially prevented
same,CD19-TCB-induced B cell depletion in blood,CD20+ B cells; [7],comparable to the effect dexamethasone
same,CD19-TCB-induced IFN-γ and IL-6 release,[3],comparable to the pre-treatement with obinutuzumab
same,CD19-TCB-induced IL-2 and TNF-α,[3],slightly weaker
same,anti-tumor activity in combination with CD19-TCB (0.5 mg/kg),[4],minimally interfered; also recorded: did not impair
same,effects on cytokine levels,[5],stronger than the effect of obinutuzumab pre-treatment
same,"IFN-γ, TNF-α and IL-2 release",[5]; [8],to a lower extent
same,IL-6 release,[5]; [8],decreased
